A short description of series [1]: Antioxidant activity assessed as inhibition of DPPH radical formation at 100 ug/ml relative to control. It counts as functional. (DPPH is a stable violet radical that fades when it is reduced.)
Series [2] addresses Protein deacetylase HDAC6 (Homo sapiens, UniProt Q9UBN7). In words: Inhibition of HDAC6 (unknown origin).
Another series has as its system Pseudomonas aeruginosa. In words: Antibacterial activity against Pseudomonas aeruginosa by broth dilution method. It counts as functional.
Series [3] concerns Aspergillus niger. In words: Antifungal activity against Aspergillus niger by broth dilution method. Format: functional. On the technique in general: In broth dilution the organism is exposed to a series of concentrations in liquid medium.
For another series, the system named is Aspergillus clavatus. In words: Antifungal activity against Aspergillus clavatus by broth dilution method. Format: functional.
In series [4] the target is Calpain-1 catalytic subunit (Homo sapiens, UniProt P07384). In words: Inhibition of human erythrocytes mu-calpain using SucLeu-Tyr-AMC as substrate.
For a further series, the target named is Cholinesterase (Homo sapiens, UniProt P06276). In words: Inhibition of BuChE (unknown origin).
The next series has as its target Acetylcholinesterase (Homo sapiens, UniProt P22303). In words: Inhibition of AChE (unknown origin).
Series [5] has as its target T1, Estrogen receptor (Homo sapiens, UniProt P03372).
T1 sequence (P03372 whole entry): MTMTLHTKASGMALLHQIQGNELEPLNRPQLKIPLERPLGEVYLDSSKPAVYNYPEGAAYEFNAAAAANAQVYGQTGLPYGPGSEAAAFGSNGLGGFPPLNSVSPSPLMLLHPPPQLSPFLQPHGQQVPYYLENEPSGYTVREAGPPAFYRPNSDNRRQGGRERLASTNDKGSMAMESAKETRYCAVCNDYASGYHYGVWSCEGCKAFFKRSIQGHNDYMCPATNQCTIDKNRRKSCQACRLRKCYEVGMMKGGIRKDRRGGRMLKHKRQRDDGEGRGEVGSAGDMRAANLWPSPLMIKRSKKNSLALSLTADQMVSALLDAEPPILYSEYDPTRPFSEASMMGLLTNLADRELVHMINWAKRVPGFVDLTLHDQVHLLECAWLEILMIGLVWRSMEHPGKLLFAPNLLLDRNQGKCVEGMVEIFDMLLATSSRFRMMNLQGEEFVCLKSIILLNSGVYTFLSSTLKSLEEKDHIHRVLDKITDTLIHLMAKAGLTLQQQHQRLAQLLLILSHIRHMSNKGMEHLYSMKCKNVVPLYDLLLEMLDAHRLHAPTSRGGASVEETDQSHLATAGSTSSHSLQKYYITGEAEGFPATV
In words: Agonist activity at ER in human Ishikawa cells assessed as alkaline phosphatase induction after 72 hrs by PNPP substrate based spectophotometric method. It counts as cell-based.

The target of a further series is Estrogen receptor beta (Homo sapiens, UniProt Q92731). In words: Binding affinity to ERbeta (unknown origin).
Series [6] addresses T1, Estrogen receptor. In words: Antagonist activity at ER in human Ishikawa cells assessed as inhibition of E2-induced alkaline phosphatase induction after 72 hrs by PNPP substrate based spectophotometric method. Format: cell-based.
Series [7] addresses T1, Estrogen receptor. In words: Binding affinity to ERalpha (unknown origin).
For series [8], the target named is Gamma-aminobutyric acid receptor subunit alpha-5 (Homo sapiens, UniProt P31644). In words: Antagonist activity at human GABA-A alpha5 receptor expressed in HEK293 cell membranes assessed as inhibition of GABA-induced response preincubated for 40 mins followed by GABA addition by FLIPR assay. Format: cell-based.
Series [9] has as its target Gamma-aminobutyric acid receptor subunit alpha-1 (Homo sapiens, UniProt P14867). In words: Antagonist activity at human GABA-A alpha1 receptor expressed in HEK293 cell membranes assessed as inhibition of GABA-induced response preincubated for 40 mins followed by GABA addition by FLIPR assay. It counts as cell-based.
The test system of another series is Rattus norvegicus. In words: Anti-inflammatory activity in rat assessed as inhibition of hind paw edema relative to control. It counts as functional.
The next series has as its system Neutrophil. In words: Anti inflammatory activity in human neuterophils preincubated for 10 mins followed by zymosan activated serum addition measured for 30 mins. Format: functional, cell-based.
The nature of series [10]: Antioxidant activity assessed as inhibition of superoxide anion radical formation after 5 mins in presence of PMS and NADH by nitroblue tetrazolium method relative to control. It counts as functional.
Series [11] concerns Aspergillus niger. In words: Antifungal activity against Aspergillus niger at 1000 ug/ml after 48 hrs by filter paper disc method. Format: functional. The conditions noted are these: read-out: IZ.
A further series relates to Penicillium chrysogenum. In words: Antifungal activity against Penicillium notatum at 1000 ug/ml after 48 hrs by filter paper disc method. It counts as functional. The conditions noted are these: read-out: IZ.
In series [12] the test system is Panel NCI-60 (60 carcinoma cell lines). In words: Growth inhibition of human NCI60 cells. It counts as functional.
In another series the test system is BXPC-3. In words: Growth inhibition of human BxPC3 cells. Format: functional.
For a further series, the system named is NCI-H460. In words: Growth inhibition of human NCI-H460 cells. It counts as functional, cell-based.
The next series relates to DU-145. In words: Growth inhibition of human DU145 cells. It counts as functional.
In another series the target is Tubulin. In words: Inhibition of tubulin polymerization (unknown origin). It counts as protein-complex assay, Homo sapiens.
Another series has as its system FaDu. In words: Growth inhibition of human FADU cells. Format: functional.
The subject of another series is SW-1736. In words: Growth inhibition of human SW1736 cells. It counts as functional.
In a further series the test system is SK-N-SH. In words: Growth inhibition of human SK-N-SH cells. It counts as functional.
The target of series [13] is T2, Amyloid-beta precursor protein (Homo sapiens, UniProt P05067). In words: Inhibition of [125I]2-(3'-Iodo-4'-N-methylaminophenyl) benzothiazole binding to amyloid beta (1 to 40) (unknown origin) after 3 hrs by NaI well counting method.
Series [14] can be described thus: 1-octanol/phosphate buffer partition coefficient, log P of the compound at pH 7.4 by ultraviolet spectrophotometric method. It counts as physicochemical.
The target of series [15] is T2, Amyloid-beta precursor protein. In words: Inhibition of [125I]2-(3'-Iodo-4'-N-methylaminophenyl) benzothiazole binding to amyloid beta (1 to 42) (unknown origin) after 3 hrs by NaI well counting method.
Series [16] can be described thus: Antioxidant activity assessed as inhibition of DPPH radical formation at 1000 ug/ml relative to control. It counts as functional.

The values below come from ChEMBL document CHEMBL4130365, “An overview of benzo[b]thiophene-based medicinal chemistry” (Eur J Med Chem, 2017).

Molecules are shown by their SMILES. Values after ≈ are worked out from the molar mass of the structure shown.

T2 sequence (P05067 whole entry): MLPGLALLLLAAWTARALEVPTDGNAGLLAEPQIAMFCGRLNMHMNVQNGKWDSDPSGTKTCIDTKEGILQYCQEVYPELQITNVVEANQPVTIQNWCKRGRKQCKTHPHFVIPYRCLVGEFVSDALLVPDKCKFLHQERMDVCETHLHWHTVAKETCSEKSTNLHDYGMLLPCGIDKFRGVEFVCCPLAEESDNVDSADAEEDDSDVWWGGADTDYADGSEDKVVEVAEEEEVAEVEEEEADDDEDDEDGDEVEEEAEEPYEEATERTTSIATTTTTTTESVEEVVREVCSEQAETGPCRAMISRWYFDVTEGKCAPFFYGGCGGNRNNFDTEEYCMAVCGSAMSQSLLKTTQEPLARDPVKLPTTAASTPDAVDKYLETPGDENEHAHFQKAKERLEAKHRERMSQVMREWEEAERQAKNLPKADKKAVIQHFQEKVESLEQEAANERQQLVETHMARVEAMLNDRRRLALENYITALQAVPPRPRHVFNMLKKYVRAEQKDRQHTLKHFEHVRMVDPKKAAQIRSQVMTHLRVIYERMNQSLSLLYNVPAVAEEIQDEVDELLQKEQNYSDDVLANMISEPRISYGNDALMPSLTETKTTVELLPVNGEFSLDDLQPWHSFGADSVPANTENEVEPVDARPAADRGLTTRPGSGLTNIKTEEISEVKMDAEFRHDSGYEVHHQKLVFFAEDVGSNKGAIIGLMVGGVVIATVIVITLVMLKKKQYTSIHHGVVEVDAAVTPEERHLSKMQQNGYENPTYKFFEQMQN
Protein deacetylase HDAC6, sequence (Q9UBN7 whole entry): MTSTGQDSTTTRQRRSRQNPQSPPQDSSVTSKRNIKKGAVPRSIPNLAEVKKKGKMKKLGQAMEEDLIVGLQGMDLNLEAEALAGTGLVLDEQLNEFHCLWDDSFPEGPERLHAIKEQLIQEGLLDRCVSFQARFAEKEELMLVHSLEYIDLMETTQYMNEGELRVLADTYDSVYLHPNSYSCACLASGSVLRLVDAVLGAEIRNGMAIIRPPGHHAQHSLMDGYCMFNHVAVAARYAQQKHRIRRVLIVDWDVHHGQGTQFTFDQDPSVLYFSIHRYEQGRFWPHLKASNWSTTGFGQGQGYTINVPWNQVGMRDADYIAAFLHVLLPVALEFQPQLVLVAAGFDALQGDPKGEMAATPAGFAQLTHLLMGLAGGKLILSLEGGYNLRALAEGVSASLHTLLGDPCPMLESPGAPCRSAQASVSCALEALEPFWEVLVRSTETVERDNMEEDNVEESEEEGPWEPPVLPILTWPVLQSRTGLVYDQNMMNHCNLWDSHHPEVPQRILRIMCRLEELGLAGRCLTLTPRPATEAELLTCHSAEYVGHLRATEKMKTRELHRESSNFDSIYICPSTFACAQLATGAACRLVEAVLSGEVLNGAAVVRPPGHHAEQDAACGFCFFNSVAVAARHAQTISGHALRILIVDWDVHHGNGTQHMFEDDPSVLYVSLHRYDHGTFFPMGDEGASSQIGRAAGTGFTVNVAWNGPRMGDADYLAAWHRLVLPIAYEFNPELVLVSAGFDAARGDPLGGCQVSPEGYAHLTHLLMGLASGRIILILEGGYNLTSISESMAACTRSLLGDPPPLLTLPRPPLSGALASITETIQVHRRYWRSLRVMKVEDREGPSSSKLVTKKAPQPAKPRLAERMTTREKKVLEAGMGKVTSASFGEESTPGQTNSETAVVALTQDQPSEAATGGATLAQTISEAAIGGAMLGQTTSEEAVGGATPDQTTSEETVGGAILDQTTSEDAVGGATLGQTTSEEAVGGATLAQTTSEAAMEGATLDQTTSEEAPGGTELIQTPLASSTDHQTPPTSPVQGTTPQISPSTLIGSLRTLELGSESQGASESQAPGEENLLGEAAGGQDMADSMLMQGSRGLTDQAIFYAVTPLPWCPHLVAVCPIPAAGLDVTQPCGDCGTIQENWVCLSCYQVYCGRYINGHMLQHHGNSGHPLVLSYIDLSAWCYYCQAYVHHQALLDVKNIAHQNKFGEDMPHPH
Acetylcholinesterase, sequence (P22303 whole entry): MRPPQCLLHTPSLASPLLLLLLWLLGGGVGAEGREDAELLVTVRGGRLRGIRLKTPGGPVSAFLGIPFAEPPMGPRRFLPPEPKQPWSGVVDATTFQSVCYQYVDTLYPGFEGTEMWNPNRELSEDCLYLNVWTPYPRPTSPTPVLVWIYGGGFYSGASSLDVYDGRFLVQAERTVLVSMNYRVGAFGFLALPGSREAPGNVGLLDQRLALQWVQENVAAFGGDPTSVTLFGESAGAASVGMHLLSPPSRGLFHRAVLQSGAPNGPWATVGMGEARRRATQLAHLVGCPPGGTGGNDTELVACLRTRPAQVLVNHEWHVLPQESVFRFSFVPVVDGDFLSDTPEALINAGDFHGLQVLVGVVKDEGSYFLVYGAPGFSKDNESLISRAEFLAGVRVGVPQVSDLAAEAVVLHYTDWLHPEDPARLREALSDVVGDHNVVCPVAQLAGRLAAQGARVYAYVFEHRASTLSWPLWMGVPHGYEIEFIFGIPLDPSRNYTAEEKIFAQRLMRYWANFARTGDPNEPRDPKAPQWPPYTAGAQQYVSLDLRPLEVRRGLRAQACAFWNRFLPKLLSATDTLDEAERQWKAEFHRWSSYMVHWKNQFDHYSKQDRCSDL
Cholinesterase, sequence (P06276 whole entry): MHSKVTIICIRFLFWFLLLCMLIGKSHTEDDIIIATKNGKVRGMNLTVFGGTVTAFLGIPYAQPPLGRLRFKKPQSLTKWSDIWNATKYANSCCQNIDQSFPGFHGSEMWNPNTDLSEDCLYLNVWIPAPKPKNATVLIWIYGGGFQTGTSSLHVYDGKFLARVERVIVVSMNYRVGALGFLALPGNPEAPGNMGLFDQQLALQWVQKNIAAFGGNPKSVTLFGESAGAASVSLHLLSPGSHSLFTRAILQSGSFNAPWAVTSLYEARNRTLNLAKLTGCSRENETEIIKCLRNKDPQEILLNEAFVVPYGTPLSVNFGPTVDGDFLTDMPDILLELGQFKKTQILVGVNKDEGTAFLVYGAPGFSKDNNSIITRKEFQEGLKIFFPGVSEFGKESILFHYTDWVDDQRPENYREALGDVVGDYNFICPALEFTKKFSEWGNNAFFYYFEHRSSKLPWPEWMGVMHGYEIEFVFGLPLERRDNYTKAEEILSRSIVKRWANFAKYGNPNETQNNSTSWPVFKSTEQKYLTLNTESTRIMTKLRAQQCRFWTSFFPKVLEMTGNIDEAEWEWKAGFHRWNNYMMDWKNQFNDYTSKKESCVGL
Gamma-aminobutyric acid receptor subunit alpha-1, sequence (P14867 whole entry): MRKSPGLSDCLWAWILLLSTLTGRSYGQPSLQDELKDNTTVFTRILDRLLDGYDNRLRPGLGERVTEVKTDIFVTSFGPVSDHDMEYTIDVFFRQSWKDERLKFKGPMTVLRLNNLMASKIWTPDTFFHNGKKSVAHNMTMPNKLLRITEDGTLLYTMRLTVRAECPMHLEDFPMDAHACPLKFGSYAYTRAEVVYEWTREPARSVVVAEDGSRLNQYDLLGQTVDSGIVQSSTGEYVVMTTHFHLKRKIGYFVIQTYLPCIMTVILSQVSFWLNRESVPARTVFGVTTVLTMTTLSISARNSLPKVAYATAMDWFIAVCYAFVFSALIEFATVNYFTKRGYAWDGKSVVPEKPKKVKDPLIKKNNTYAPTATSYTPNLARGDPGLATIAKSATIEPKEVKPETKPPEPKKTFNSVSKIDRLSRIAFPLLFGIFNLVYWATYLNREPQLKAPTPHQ
Estrogen receptor beta, sequence (Q92731 whole entry): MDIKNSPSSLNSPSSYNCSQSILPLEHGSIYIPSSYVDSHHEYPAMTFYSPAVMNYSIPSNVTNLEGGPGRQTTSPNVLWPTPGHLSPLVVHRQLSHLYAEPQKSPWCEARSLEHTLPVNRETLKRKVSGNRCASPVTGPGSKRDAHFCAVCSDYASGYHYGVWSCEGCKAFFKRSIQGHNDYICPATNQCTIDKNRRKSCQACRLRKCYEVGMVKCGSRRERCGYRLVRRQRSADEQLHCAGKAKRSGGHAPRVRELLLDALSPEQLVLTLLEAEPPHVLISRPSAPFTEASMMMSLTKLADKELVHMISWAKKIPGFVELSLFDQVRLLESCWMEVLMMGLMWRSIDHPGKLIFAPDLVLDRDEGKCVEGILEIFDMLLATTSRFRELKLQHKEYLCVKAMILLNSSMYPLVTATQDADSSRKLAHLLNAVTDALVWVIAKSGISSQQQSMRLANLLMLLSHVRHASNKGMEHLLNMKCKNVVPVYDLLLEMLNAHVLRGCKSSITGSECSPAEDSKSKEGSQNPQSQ
Gamma-aminobutyric acid receptor subunit alpha-5, sequence (P31644 whole entry): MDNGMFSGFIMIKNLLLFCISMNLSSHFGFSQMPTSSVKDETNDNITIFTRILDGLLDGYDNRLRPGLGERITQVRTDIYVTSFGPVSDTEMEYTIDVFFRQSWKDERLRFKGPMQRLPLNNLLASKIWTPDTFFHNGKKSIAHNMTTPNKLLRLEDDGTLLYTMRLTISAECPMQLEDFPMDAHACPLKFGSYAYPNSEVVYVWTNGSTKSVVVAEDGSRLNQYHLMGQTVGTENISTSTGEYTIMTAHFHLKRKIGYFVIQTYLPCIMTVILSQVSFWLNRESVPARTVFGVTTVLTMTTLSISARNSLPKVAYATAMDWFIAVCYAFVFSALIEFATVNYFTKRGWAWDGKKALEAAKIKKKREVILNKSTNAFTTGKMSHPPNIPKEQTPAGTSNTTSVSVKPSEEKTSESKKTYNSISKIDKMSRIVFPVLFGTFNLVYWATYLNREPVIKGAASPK

In the case of `Cc1cc(=O)oc2c(/C=N/NC(=O)c3sc4ccccc4c3Cl)c(O)ccc12`, in series [1], the inhibition (commonly the relative decrease from the control value, in per cent) was 70%.

On to `CNC(=O)c1ccc(Nc2c[nH]c3ccccc23)cc1`, for which the IC50 (usually the midpoint of a concentration-inhibition curve) in series [2] was determined as 200 nM.

With `CNC(=O)c1ccc(Nc2csc3ccccc23)cc1`, the IC50 in [2] amounted to 14 nM.

As to `CC1(C)CC(=O)C2=C(C1)NC(=O)NC2c1cn(C(=O)c2sc3ccc(F)cc3c2Cl)c2ccccc12` (centres undefined), the MIC in the series on Pseudomonas aeruginosa, against Aspergillus niger [3] and with Aspergillus clavatus was 100 µg/mL (≈ 192 µM) in each case.

Turning to `NC(=O)C(=O)C(Cc1ccccc1)NC(=O)C1CCN(c2cc3ccccc3s2)CC1` (centres undefined), the affinity in series [4], expressed as Ki, was 9 nM. That is a single-digit nanomolar value.

In the case of `O=C1SCc2ccccc21`, the values for the Ki on Cholinesterase and at Acetylcholinesterase were 4.89 mM and 59.8 µM, respectively.

Consider `Oc1ccc2c(c1)C(c1ccc(OCCN3CCCCC3)cc1)c1c(sc3cc(O)ccc13)C2` (centres undefined), for which the EC50 (as a rule, the concentration that produces a half-maximal response) at Estrogen receptor [5] came to 0.9 nM. Also, the inhibition constant Ki (in general, a dissociation constant, usually derived from enzyme kinetics or from competition with a known ligand) was 0.9 nM on Estrogen receptor beta and 0.5 nM at Estrogen receptor [7]. Moreover, the IC50 at Estrogen receptor [6] amounted to 53 nM.

For `CC1=NN=C(c2cc3c(C(F)(F)F)cccc3s2)c2cc3oc(=O)[nH]c3cc2C1`, the 50% inhibitory concentration (IC50) in [8] was found to be 201 nM; in series [9], 479 nM.

As to `CCOC(=O)c1c(NC(=O)C(Cl)Cl)sc2c1CCCC2`, the “inhibition (INH)” value in the series with Rattus norvegicus came out at 81%. The same molecule registered an IC50 in the series on Neutrophil of 396 µM.

For the molecule `CCOC(=O)c1c(N)sc2c1CCCC2`, the “inhibition (INH)” value in the series with Rattus norvegicus worked out at 61%. Also, in [10], the inhibition was found to be 58.6%. Besides, inhibition in the series on Neutrophil was half-maximal at 121 µM (IC50).

`Nc1c(C(=O)Nn2c(=O)cc(-c3ccccc3)c3ccc(O)cc32)sc2cc(F)ccc12`: the zone of inhibition at 1000 µg/mL in the series on Aspergillus niger [11] came out at 27 mm; in the series with Penicillium chrysogenum, 26 mm.

For the molecule `COc1ccc(-c2sc3cc(OC)ccc3c2Oc2cc(OC)c(OC)c(OC)c2)cc1`, the GI50 (as a rule, the concentration giving 50% growth inhibition) in series [12] worked out at 490 nM; in the series with BXPC-3, 0.23 µg/mL (≈ 0.508 µM); in the series on NCI-H460 it was 0.31 µg/mL (≈ 0.685 µM); in the series on DU-145, 0.42 µg/mL (≈ 0.928 µM); in the series on FaDu it was 0.098 µg/mL (≈ 0.217 µM); in the series on SW-1736, 0.73 µg/mL (≈ 1.61 µM). Also, growth in the series with SK-N-SH was halved (GI50) at 0.063 µg/mL (≈ 0.139 µM). This molecule returned an IC50 against Tubulin of 880 nM.

With `Nc1ccc(-c2cc3ccccc3s2)cc1`, the Ki was determined as 4.31 nM in series [13] and 6.5 nM in series [15]. Also, the logD (usually the decadic logarithm of the distribution of all forms, ionised or not, between an organic phase and buffer at a given pH) in series [14] was determined as 2.87.

As for `CCOC(=O)c1c(-n2c(-c3ccccc3)nc3c(Br)cc(Br)cc3c2=O)sc2c1CCCC2`, the inhibition in series [16] came to 67%.

Turning to `O=C1SCc2cccc([N+](=O)[O-])c21`, the Ki amounted to 0.341 mM on Cholinesterase and 11.8 µM at Acetylcholinesterase.

On to `Oc1ccc(-c2cc3ccccc3s2)cc1`, for which the Ki in series [13] amounted to 3.04 nM; in [15] it was 3.72 nM. Further, the logD in [14] was found to be 2.99.
